Two compounds from patent US9127008B2, “Morphine sulfate methanolic solvate, processes for making same and related compositions and methods for treating pain” (Johnson Matthey Public Limited Company, priority 2013, dated 2015) can be followed below.

The conditions of data set [1]: 2 months under air at room temperature.
Data set [2] in a line: Storage of morphine sulfate in moisturizing chamber (moist room temperature air), ABUK/water/ethanol analysis. The class given is physicochemical. The following applies: after several days in moisturizing chamber.

Read-outs that look alike come from different tables or passages of the source.

Take `CN1CC[C@]23c4c5ccc(O)c4O[C@H]2[C@@H](O)C=C[C@H]3[C@H]1C5` [morphine base, morphine]: in data set [1], the “methanol content after storage” value was determined as 0.08 % by weight and the “water content after storage” value is on record as 5.70 % by weight. For the same compound, the “ABUK level after storage” value in data set [1] (morphine base had 5 ppm ABUK at start) was determined as 117 ppm.
Turning to `CN1CC[C@]23c4c5ccc(O)c4O[C@H]2[C@@H](O)C=C[C@H]3[C@H]1C5.O=S(=O)(O)O` [morphine sulfate], the “ABUK level after storage” value in data set [2] (constant flow of moist room temperature air, 17 ppm ABUK before) turned out to be 123 ppm. The “ethanol content after storage” value in data set [2] (0.95% before (gas chromatography)) worked out at 0.11%. For the same compound, the “water content after storage” value in data set [2] (5.25% before (Karl Fischer)) is on record as 9.8%.
